According to ChEMBL document CHEMBL1135781 (J Med Chem, 2002):

The molecules below were run against Melatonin receptor (Homo sapiens, UniProt P48039+P49286) (assay: Ability to inhibit 2-[125I]iodomelatonin specific binding to human melatonin receptor type 1A (MT1) expressed in CHO cells.).
Type: cell-based

Compound	Ki [nM]
COc1ccc2c(c1)[C@@H](CCNC(C)=O)CC2	10.6
CCCC(=O)NCC[C@H]1CCc2ccc(OC)cc21	43.7
CCCC(=O)NCC[C@@H]1CCc2ccc(OC)cc21	0.0321
COc1ccc2c(c1)[C@H](CCNC(C)=O)CC2	0.0733
COc1ccc2c(c1)C(CCNC(=O)C(F)(F)F)C(c1ccccc1)C2 (stereo not drawn)	1.6
CCCC(=O)NCCC1CCc2ccc(OC)cc21 (stereo not drawn)	0.0553
COc1ccc2c(c1)C(CCNC(C)=O)CC2 (stereo not drawn)	0.131
COc1ccc2c(c1)C(CCNC(=O)C(F)(F)F)=C(c1ccccc1)C2	0.00602
